Test results taken from ChEMBL document CHEMBL1240316, “An oxidation-sensing mechanism is used by the global regulator MgrA in Staphylococcus aureus” (2006).
Active and inactive are the calls of the source. The rule behind the calls is not given here.

Key:
Format in all cases: functional, organism-based
Staphylococcus aureus [1] = experiment: Antimicrobial activity against Staphylococcus aureus expressing mgrA C12S mutant gene harboring Pyj335-His-mgrA assessed as visible growth at 0.20 ug/ml after 24 hrs in presence of 100 uM hydrogen peroxide
Staphylococcus aureus [2] = experiment: Antimicrobial activity against Staphylococcus aureus expressing mgrA C12S mutant gene assessed as visible growth at 0.20 ug/ml after 24 hrs
Staphylococcus aureus [3] = experiment: Antimicrobial activity against Staphylococcus aureus expressing mgrA C12S mutant gene assessed as visible growth at 0.55 ug/ml after 24 hrs
Staphylococcus aureus [4] = experiment: Antimicrobial activity against Staphylococcus aureus expressing mgrA C12S mutant gene assessed as visible growth at 0.25 ug/ml after 24 hrs in presence of 20 uM paraquat
Staphylococcus aureus [5] = experiment: Antimicrobial activity against Staphylococcus aureus expressing mgrA C12S mutant gene harboring plasmid Pyj335 assessed as visible growth at 0.75 ug/ml after 24 hrs in presence of 20 uM paraquat
Staphylococcus aureus [6] = experiment: Antimicrobial activity against Staphylococcus aureus assessed as visible growth at 0.20 ug/ml after 24 hrs
Staphylococcus aureus [7] = experiment: Antimicrobial activity against Staphylococcus aureus assessed as visible growth at 0.55 ug/ml after 24 hrs in presence of 20 uM paraquat
Staphylococcus aureus [8] = experiment: Antimicrobial activity against Staphylococcus aureus expressing mgrA C12S mutant gene harboring plasmid Pyj335 assessed as visible growth at 0.55 ug/ml after 24 hrs in presence of 20 uM paraquat
Staphylococcus aureus [9] = experiment: Antimicrobial activity against Staphylococcus aureus expressing mgrA C12S mutant gene harboring plasmid Pyj335 assessed as visible growth at 0.20 ug/ml after 24 hrs in presence of 25 uM paraquat
Staphylococcus aureus [10] = experiment: Antimicrobial activity against Staphylococcus aureus expressing mgrAC12S mutant gene harboring plasmid Pyj335 assessed as visible growth at 1.1 ug/ml after 24 hrs in presence of 100 uM hydrogen peroxide
Staphylococcus aureus [11] = experiment: Antimicrobial activity against Staphylococcus aureus expressing mgrA C12S mutant gene harboring Pyj335-His-mgrA assessed as visible growth at 0.6 ug/ml after 24 hrs in presence of 20 uM paraquat
Staphylococcus aureus [12] = experiment: Antimicrobial activity against Staphylococcus aureus expressing mgrA C12S mutant gene assessed as visible growth at 1.4 ug/ml after 24 hrs
Staphylococcus aureus [13] = experiment: Antimicrobial activity against Staphylococcus aureus expressing mgrA C12S mutant gene harboring Pyj335-His-mgrA C12S assessed as visible growth at 1.1 ug/ml after 24 hrs in presence of 100 uM hydrogen peroxide
Staphylococcus aureus [14] = experiment: Antimicrobial activity against Staphylococcus aureus expressing mgrA C12S mutant gene harboring plasmid Pyj335 assessed as visible growth at 2.6 ug/ml after 24 hrs in presence of 20 uM paraquat
Staphylococcus aureus [15] = experiment: Antimicrobial activity against Staphylococcus aureus expressing mgrA C12S mutant gene harboring plasmid Pyj335 assessed as visible growth at 1.8 ug/ml after 24 hrs
Staphylococcus aureus [16] = experiment: Antimicrobial activity against Staphylococcus aureus assessed as visible growth at 2.6 ug/ml after 24 hrs in presence of 20 uM paraquat
Staphylococcus aureus [17] = experiment: Antimicrobial activity against Staphylococcus aureus expressing mgrA C12S mutant gene assessed as visible growth at 1.8 ug/ml after 24 hrs
Staphylococcus aureus [18] = experiment: Antimicrobial activity against Staphylococcus aureus expressing mgrA C12S mutant gene harboring plasmid Pyj335 assessed as visible growth at 1.8 ug/ml after 24 hrs in presence of 20 uM paraquat
Staphylococcus aureus [19] = experiment: Antimicrobial activity against Staphylococcus aureus expressing mgrA C12S mutant gene harboring plasmid Pyj335-His-mgrA assessed as visible growth at 1.1 ug/ml after 24 hrs

SMILES	Activity (Staphylococcus aureus [1])	Activity (Staphylococcus aureus [2])	Activity (Staphylococcus aureus [3])	Activity (Staphylococcus aureus [4])	Activity (Staphylococcus aureus [5])	Activity (Staphylococcus aureus [6])	Activity (Staphylococcus aureus [7])	Activity (Staphylococcus aureus [8])	Activity (Staphylococcus aureus [9])	Activity (Staphylococcus aureus [10])	Activity (Staphylococcus aureus [11])	Activity (Staphylococcus aureus [12])	Activity (Staphylococcus aureus [13])	Activity (Staphylococcus aureus [14])	Activity (Staphylococcus aureus [15])	Activity (Staphylococcus aureus [16])	Activity (Staphylococcus aureus [17])	Activity (Staphylococcus aureus [18])	Activity (Staphylococcus aureus [19])
O=C(O)c1cn(C2CC2)c2cc(N3CCNCC3)c(F)cc2c1=O [CIPROFLOXACIN]	Active	inactive	inactive	inactive	Active	Active	Active	inactive	inactive										
CN[C@H](CC(C)C)C(=O)N[C@H]1C(=O)N[C@@H](CC(N)=O)C(=O)N[C@H]2C(=O)N[C@H]3C(=O)N[C@H](C(=O)N[C@H](C(=O)O)c4cc(O)cc(O)c4-c4cc3ccc4O)[C@H](O)c3ccc(c(Cl)c3)Oc3cc2cc(c3O[C@@H]2O[C@H](CO)[C@@H](O)[C@H](O)[C@H]2O[C@H]2C[C@](C)(N)[C@H](O)[C@H](C)O2)Oc2ccc(cc2Cl)[C@H]1O [VANCOMYCIN]										inactive	inactive	inactive	Active	Active	inactive	Active	inactive	inactive	Active
